Laboratory results as given in ChEMBL document CHEMBL1157122, “The contribution of a 2-amino group on receptor tyrosine kinase inhibition and antiangiogenic activity in 4-anilinosubstituted pyrrolo[2,3-d]pyrimidines” (Bioorg Med Chem Lett, 2010).

Key:
A-431 = test: cells; settings: Homo sapiens
[1] = target: Vascular endothelial growth factor receptor 1 (Homo sapiens, UniProt P17948); test: cell-based
[2] = target: T1, Vascular endothelial growth factor receptor 2 (Homo sapiens, UniProt P35968); test: cell-based
[3] = target: Platelet-derived growth factor receptor beta (Homo sapiens, UniProt P09619); test: Inhibition of PDGFRbeta
[4] = target: T2, Epidermal growth factor receptor (Homo sapiens, UniProt P00533); test: cell-based
[5] = target: T2, Epidermal growth factor receptor
[6] = target: T1, Vascular endothelial growth factor receptor 2
[7] = system: chorioallantoic membrane (Gallus gallus); test: cells; settings: Homo sapiens, A-431

T2 sequence (P00533 whole entry): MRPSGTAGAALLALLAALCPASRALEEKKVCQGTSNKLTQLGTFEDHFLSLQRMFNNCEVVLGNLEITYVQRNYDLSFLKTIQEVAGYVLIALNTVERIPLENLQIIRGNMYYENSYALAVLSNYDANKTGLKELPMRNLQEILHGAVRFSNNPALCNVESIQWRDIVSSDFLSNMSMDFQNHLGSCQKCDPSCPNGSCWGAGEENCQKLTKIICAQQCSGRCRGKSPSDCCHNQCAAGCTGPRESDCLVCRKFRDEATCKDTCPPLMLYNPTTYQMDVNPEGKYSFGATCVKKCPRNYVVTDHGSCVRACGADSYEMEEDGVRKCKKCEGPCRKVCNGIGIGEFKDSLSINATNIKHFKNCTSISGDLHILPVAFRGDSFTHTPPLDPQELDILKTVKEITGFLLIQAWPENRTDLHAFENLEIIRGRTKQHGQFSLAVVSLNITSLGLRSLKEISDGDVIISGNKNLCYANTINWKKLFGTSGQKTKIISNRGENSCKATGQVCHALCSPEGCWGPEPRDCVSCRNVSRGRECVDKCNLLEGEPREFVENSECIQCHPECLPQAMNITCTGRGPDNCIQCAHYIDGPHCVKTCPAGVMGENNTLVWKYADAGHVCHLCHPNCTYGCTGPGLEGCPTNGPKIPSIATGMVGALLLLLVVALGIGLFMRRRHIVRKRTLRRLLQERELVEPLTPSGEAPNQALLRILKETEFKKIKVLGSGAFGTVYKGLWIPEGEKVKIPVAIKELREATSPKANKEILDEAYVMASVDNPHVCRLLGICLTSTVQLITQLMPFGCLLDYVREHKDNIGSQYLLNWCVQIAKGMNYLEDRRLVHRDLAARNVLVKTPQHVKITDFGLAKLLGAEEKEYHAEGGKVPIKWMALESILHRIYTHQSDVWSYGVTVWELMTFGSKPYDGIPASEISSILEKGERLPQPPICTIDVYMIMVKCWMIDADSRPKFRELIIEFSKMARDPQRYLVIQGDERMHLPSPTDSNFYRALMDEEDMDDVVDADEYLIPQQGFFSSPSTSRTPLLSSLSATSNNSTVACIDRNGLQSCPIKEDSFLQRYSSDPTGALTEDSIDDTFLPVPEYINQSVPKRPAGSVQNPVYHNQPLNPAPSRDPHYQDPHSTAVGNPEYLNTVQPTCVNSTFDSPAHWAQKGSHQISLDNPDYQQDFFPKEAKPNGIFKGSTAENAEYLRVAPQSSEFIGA
T1 sequence (P35968 whole entry): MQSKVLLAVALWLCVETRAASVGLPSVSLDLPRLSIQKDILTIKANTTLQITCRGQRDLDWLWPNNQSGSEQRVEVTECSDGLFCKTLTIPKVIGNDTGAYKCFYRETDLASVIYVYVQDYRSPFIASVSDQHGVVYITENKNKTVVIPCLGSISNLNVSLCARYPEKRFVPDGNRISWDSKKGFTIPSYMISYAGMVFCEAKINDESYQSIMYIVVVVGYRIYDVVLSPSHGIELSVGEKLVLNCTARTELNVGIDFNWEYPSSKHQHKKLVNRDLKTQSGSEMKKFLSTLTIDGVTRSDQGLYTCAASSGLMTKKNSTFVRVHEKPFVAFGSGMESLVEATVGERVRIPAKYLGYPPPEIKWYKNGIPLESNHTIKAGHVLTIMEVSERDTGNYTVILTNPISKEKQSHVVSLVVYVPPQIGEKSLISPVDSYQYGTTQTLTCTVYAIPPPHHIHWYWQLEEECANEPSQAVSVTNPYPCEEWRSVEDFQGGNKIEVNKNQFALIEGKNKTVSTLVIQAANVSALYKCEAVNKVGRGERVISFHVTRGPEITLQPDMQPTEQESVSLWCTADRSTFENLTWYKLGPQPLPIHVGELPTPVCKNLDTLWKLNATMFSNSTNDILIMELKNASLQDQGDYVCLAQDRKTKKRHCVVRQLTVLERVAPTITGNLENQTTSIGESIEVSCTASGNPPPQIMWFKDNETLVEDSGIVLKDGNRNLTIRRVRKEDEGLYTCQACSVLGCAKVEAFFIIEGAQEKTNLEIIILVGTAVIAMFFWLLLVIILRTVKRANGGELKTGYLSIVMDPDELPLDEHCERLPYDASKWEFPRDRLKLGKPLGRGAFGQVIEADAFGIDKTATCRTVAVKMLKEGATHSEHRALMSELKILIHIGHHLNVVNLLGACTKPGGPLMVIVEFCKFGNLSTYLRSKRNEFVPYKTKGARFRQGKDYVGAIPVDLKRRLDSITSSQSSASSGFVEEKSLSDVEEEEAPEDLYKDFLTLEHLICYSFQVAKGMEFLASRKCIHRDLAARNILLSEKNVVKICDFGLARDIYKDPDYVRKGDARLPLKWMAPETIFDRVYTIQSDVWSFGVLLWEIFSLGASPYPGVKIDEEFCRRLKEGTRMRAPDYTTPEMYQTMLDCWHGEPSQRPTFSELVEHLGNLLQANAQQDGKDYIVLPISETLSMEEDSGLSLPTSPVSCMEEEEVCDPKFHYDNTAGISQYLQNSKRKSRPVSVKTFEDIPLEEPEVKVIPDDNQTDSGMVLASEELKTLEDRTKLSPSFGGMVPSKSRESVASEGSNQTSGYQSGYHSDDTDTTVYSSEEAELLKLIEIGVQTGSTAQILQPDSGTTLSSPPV
Sequence of Vascular endothelial growth factor receptor 1 (P17948 whole entry): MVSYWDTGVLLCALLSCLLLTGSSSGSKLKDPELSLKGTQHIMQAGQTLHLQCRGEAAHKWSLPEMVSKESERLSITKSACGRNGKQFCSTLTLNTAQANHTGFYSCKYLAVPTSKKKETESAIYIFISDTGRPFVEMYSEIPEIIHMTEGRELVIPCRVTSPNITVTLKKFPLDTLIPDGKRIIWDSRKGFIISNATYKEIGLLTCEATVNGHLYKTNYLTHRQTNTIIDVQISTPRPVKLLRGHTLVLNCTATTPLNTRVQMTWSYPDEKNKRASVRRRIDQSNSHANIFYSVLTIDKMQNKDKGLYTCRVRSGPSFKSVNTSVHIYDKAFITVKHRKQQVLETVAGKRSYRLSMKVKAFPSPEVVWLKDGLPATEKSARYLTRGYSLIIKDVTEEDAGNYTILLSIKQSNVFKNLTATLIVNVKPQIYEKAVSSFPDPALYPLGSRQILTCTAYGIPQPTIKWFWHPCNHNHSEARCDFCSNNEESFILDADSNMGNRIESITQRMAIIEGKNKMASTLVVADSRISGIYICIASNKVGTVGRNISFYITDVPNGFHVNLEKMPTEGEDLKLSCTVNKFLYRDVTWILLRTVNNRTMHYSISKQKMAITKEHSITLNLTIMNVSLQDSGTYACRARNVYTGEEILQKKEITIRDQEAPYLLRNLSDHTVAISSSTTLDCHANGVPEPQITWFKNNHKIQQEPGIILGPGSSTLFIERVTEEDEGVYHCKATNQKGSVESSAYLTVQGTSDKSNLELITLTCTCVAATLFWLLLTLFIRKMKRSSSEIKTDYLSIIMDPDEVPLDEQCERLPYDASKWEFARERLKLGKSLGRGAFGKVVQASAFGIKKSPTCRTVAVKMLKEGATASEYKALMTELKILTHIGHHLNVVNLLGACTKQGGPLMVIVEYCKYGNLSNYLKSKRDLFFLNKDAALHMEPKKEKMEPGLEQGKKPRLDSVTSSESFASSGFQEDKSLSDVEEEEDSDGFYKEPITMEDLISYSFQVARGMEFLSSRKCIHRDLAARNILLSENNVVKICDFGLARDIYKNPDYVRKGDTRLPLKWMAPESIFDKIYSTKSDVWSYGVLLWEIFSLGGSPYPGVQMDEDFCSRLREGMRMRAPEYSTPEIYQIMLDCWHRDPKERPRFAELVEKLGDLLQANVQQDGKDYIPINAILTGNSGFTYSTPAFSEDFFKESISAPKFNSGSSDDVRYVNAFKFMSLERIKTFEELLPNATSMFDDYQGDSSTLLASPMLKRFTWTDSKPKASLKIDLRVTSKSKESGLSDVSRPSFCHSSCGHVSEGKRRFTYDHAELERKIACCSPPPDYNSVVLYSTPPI
Sequence of Platelet-derived growth factor receptor beta (P09619 whole entry): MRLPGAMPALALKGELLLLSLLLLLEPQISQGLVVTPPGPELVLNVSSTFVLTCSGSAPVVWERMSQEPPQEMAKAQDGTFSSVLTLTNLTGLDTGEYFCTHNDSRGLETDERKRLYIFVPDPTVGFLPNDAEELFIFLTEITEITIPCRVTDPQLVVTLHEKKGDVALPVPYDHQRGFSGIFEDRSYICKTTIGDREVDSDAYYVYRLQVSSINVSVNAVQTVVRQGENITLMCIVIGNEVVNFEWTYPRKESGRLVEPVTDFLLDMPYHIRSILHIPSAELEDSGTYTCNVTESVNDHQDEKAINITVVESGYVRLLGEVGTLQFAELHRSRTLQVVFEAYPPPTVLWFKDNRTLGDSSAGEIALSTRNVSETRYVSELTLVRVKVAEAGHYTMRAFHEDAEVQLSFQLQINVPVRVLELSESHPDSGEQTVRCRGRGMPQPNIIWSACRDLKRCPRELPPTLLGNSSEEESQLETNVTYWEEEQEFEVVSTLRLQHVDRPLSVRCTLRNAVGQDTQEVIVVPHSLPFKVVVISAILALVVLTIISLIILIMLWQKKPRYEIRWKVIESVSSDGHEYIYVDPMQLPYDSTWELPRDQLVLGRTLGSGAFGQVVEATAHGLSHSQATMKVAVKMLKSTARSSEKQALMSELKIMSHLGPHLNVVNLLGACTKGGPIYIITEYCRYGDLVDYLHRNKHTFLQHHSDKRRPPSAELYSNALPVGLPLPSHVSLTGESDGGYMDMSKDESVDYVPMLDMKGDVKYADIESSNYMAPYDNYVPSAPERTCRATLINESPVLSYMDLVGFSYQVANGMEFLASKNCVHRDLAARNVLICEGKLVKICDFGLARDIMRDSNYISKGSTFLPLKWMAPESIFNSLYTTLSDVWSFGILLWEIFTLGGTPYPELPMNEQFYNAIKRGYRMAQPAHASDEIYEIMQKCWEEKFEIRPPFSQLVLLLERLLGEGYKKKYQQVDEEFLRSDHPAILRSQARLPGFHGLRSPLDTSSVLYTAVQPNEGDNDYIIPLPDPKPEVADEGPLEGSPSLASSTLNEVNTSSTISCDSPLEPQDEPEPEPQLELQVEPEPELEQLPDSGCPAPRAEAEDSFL

SMILES | IC50 (A-431) [µM] | IC50 [1] [µM] | IC50 [2] [µM] | IC50 [3] [µM] | IC50 [4] [µM] | IC50 [5] [µM] | IC50 [6] [µM] | IC50 [7] [µM]
Brc1cccc(Nc2ncnc3[nH]c(CCc4ccccc4)cc23)c1 | > 500 | 129 | 112 | 8.5 | > 200 | – | – | –
Fc1ccc(Nc2ncnc3[nH]c(CCc4ccccc4)cc23)cc1C(F)(F)F | > 500 | 164 | 57.5 | > 500 | > 200 | – | – | –
Fc1cc(Cl)ccc1Nc1ncnc2[nH]c(CCc3ccccc3)cc12 | – | > 200 | 40.5 | > 500 | > 200 | – | – | –
Fc1ccc(Nc2ncnc3[nH]c(CCc4ccccc4)cc23)cc1Br | > 500 | > 200 | 25.2 | 192 | > 200 | – | – | –
C#Cc1cccc(Nc2ncnc3[nH]c(CCc4ccccc4)cc23)c1 | > 500 | 142 | 49.4 | > 500 | > 200 | – | – | –
c1ccc(CCc2cc3c(Nc4ccc5[nH]ccc5c4)ncnc3[nH]2)cc1 | – | 224 | 31.6 | 104 | 56.1 | – | – | –
FC(F)(F)c1cccc(Nc2ncnc3[nH]c(CCc4ccccc4)cc23)c1 | > 500 | > 200 | 22.1 | > 500 | > 200 | – | – | –
Nc1nc(Nc2ccc(F)c(Br)c2)c2cc(CCc3ccccc3)[nH]c2n1 | – | – | – | – | – | 22.8 | 132 | –
Nc1nc(Nc2cccc(Br)c2)c2cc(CCc3ccccc3)[nH]c2n1 | – | – | – | – | – | – | – | 19.5
